Experimental data reported in article PMC5988692, “AZ304, a novel dual BRAF inhibitor, exerts anti-tumour effects in colorectal cancer independently of BRAF genetic status” (British Journal of Cancer, 2018).
Read-outs that look alike come from different tables or passages of the source.

Legend:
Type in all cases: cell-based
A2058 = assay: Cell proliferation assay (cell panel, MTS); details: Homo sapiens, 72 h; A2058, Melanoma, BRAF V600E HT, RAS WT, 3 days
Procedure: (§1) The proliferation assays against a cell panel were performed as described in ref.[18] Briefly, the cells were treated with DMSO or multiple concentrations of AZ304 for 3 days. The cell growth was determined using the CellTiter 96 Aqueous One Cell Proliferation Assay (Promega, Madison, WI). […] The assays were done in triplicate across different plates.
(§2) Anti-proliferative activity of AZ304 against a panel of cell lines with different BRAF and RAS genetic status. […] Cell growth was determined by MTS assay.

A375 = assay: Cell proliferation assay (cell panel, MTS); details: Homo sapiens, A-375, 72 h; A375, Melanoma, BRAF V600E HM, RAS WT, 3 days
Procedure: as §1, §2

CHL-1 = assay: Cell proliferation assay (cell panel, MTS); details: Homo sapiens, 72 h; CHL-1, Melanoma, BRAF WT, RAS WT, 3 days
Procedure: as §1, §2

COLO205 = assay: Cell proliferation assay (cell panel, MTS); details: Homo sapiens, COLO 205, 72 h; COLO205, Colon, BRAF V600E HT, RAS WT, 3 days
Procedure: as §1, §2

Calu-6 = assay: Cell proliferation assay (cell panel, MTS); details: Homo sapiens, 72 h; Calu-6, Lung, BRAF WT, KRAS MT, 3 days
Procedure: as §1, §2

HCT-15 = assay: Cell proliferation assay (cell panel, MTS); details: Homo sapiens, 72 h; HCT-15, Colon, BRAF WT, KRAS MT, 3 days
Procedure: as §1, §2

L-363 = assay: Cell proliferation assay (cell panel, MTS); details: Homo sapiens, 72 h; L-363, Leukemia, BRAF WT, NRAS MT, 3 days
Procedure: as §1, §2

LNCaP clone FGC = assay: Cell proliferation assay (cell panel, MTS); details: Homo sapiens, 72 h, Prostate, BRAF WT, RAS WT, 3 days
Procedure: as §1, §2

MC-F7/mdr+ = assay: Cell proliferation assay (cell panel, MTS); details: Homo sapiens, MCF7, 72 h, Breast, BRAF WT, RAS WT, 3 days
Procedure: as §1, §2

MC-F7 = assay: Cell proliferation assay (cell panel, MTS); details: Homo sapiens, MCF7, 72 h; MC-F7, Breast, BRAF WT, RAS WT, 3 days
Procedure: as §1, §2

MDA-MB-231 = assay: Cell proliferation assay (cell panel, MTS); details: Homo sapiens, 72 h; MDA-MB-231, Breast, BRAF G464V HT, KRAS MT, 3 days
Procedure: as §1, §2

MDA-MB-468 = assay: Cell proliferation assay (cell panel, MTS); details: Homo sapiens, 72 h; MDA-MB-468, Breast, BRAF WT, RAS WT, 3 days
Procedure: as §1, §2

NCI-H23 = assay: Cell proliferation assay (cell panel, MTS); details: Homo sapiens, 72 h; NCI-H23, Lung, BRAF WT, KRAS MT, 3 days
Procedure: as §1, §2

NIH: OVCAR-3 = assay: Cell proliferation assay (cell panel, MTS); details: Homo sapiens, 72 h; NIH: OVCAR-3, Ovary, BRAF WT, RAS WT, 3 days
Procedure: as §1, §2

PANC-1 = assay: Cell proliferation assay (cell panel, MTS); details: Homo sapiens, 72 h; PANC-1, Pancreas, BRAF WT, KRAS MT, 3 days
Procedure: as §1, §2

RPMI-8226 = assay: Cell proliferation assay (cell panel, MTS); details: Homo sapiens, RPMI-8226, 72 h; BRAF WT, KRAS MT, 3 days
Procedure: as §1, §2

SK-MEL-28 = assay: Cell proliferation assay (cell panel, MTS); details: Homo sapiens, 72 h; SK-MEL-28, Melanoma, BRAF V600E, RAS WT, 3 days
Procedure: as §1, §2

SK-MEL-2 = assay: Cell proliferation assay (cell panel, MTS); details: Homo sapiens, 72 h; SK-MEL-2, Melanoma, BRAF WT, NRAS MT, 3 days
Procedure: as §1, §2

SK-MEL-31 = assay: Cell proliferation assay (cell panel, MTS); details: Homo sapiens, 72 h; SK-MEL-31, Melanoma, BRAF WT, RAS WT, 3 days
Procedure: as §1, §2

SK-MEL-3 = assay: Cell proliferation assay (cell panel, MTS); details: Homo sapiens, SK-MEL3, 72 h; SK-MEL-3, Melanoma, BRAF V600E, RAS WT, 3 days
Procedure: as §1, §2

SW620 = assay: Cell proliferation assay (cell panel, MTS); details: Homo sapiens, SW-620, 72 h; SW620, Colon, BRAF WT, KRAS MT, 3 days
Procedure: as §1, §2

Caco-2 cells = assay: MTT proliferation assay; details: Homo sapiens, Caco-2, BRAF WT, KRAS WT
Procedure: (§3) The proliferation assays in selected colorectal cancer cell lines were measured using a 3-(4,5-dimethyl thiazol-2-yl)-2,5-diphenyl tetrazolium bromide (MTT) assay. First of all, cultured cells were seeded into 96-well plates (2000–5000 cells per well). After incubation for 24 h, the cells were pretreated with DMSO or AZ304 for 1 h. […] Cells were incubated for a further 48 or 72 h. For EGF stimulating assay, cells were incubated in reduced serum medium overnight and then treated with AZ304 or AZ304 + EGF (20 ng/ml) for 72 h. Twenty microliter of MTT solution (5 mg/ml) was added to each well followed by 4 h incubation at 37 °C. The cell culture medium was removed and the cells were lysed in 200 μl dimethylsulphoxide (DMSO) and the results were measured using a microplate reader (Model 550, Bio-Rad Laboratories, Hercules, CA, USA).

DiFi cells = assay: MTT proliferation assay; details: Homo sapiens, BRAF WT, KRAS WT
Procedure: as §3

HT-29 cells = assay: MTT proliferation assay; details: Homo sapiens, HT-29, BRAF MT (V600E), KRAS WT
Procedure: as §3

RKO cells = assay: MTT proliferation assay; details: Homo sapiens, BRAF MT (V600E), KRAS WT
Procedure: as §3

[1] = 48 h, read-out: GI50 (μM) of AZ304 48 h
[2] = 72 h, read-out: GI50 (μM) of AZ304 72 h

COc1ccc2c(Nc3cc(NC(=O)c4cccc(C(C)(C)C#N)c4)ccc3C)ncnc2c1 [AZ304]
GI50 (A2058): 3.82 µM
GI50 (A375): 0.23 µM
GI50 (CHL-1): 8.27 µM
GI50 (COLO205): 0.28 µM
GI50 (Calu-6): 5.51 µM
GI50 (HCT-15): 11.5 µM
GI50 (L-363): 7.02 µM
GI50 (LNCaP clone FGC): 3.32 µM
GI50 (MC-F7/mdr+): 7.63 µM
GI50 (MC-F7): 10.1 µM
GI50 (MDA-MB-231): 1.99 µM
GI50 (MDA-MB-468): 8.83 µM
GI50 (NCI-H23): 3.99 µM
GI50 (NIH: OVCAR-3): 11 µM
GI50 (PANC-1): 5.45 µM
GI50 (RPMI-8226): 5.37 µM
GI50 (SK-MEL-28): 0.5 µM
GI50 (SK-MEL-2): 3.91 µM
GI50 (SK-MEL-31): 0.43 µM
GI50 (SK-MEL-3): 0.53 µM
GI50 (SW620): 2.78 µM
GI50 (Caco-2 cells; [1]): 1.76 µM
GI50 (Caco-2 cells; [2]): 0.377 µM
GI50 (DiFi cells; [1]): 4.99 µM
GI50 (DiFi cells; [2]): 0.635 µM
GI50 (HT-29 cells; [1]): 3.9 µM
GI50 (HT-29 cells; [2]): 0.389 µM
GI50 (RKO cells; [1]): 4.54 µM
GI50 (RKO cells; [2]): 0.503 µM
